Reference: publication PMC7305224, “Mutually stabilizing interactions between proto-peptides and RNA” (Nature Communications, 2020)

System: RNA duplex 2 (5′-rArArArArUrUrUrArUrArUrUrArUrUrA-3′ and 5′-rUrArArUrArArUrArUrArArArUrUrUrU-3′)
Experiment: RNA thermal denaturation (Tm) by UV hyperchromicity, RNA duplex 2
Format: binding
Experimental: Prior to Tm analyses, RNA samples were annealed in the appropriate buffer by heating to 75 °C and slowly cooling to room temperature. Depsipeptide/peptide was added to the annealed RNA and incubated at 4 °C for 20 min prior to carrying out the analysis. For analyses involving dry-down reaction mixtures, the Tm was determined by monitoring fluorescence increase upon melting of a fluorophore/quencher-labeled RNA duplex (5′-rCrGrArUrUrUrArGrCrG-/3IABkFQ/-3′ and 3′-rGrCrUrArArArUrCrGrC-FAM-5′) using a BioRad CFX Connect rtPCR instrument with a heating ramp of 1 °C/min and 20 μL final sample volumes. For analyses involving pure, synthetic compounds, the Tm of the RNA was determined by monitoring UV hyperchromicity at 260 nm using a Varian Cary Bio-100 spectrophotometer, with a heating ramp of 1 °C/min and 0.5- or 1-cm pathlength cells. The following RNA sequences were used: RNA duplex 1 = 5′-rCrGrCrUrArArArUrCrG-3′ and 5′-rCrGrArUrUrUrArGrCrG-3′; RNA duplex 2 = 5′-rArArArArUrUrUrArUrArUrUrArUrUrA-3′ and 5′-rUrArArUrArArUrArUrArArArUrUrUrU-3′; RNA duplex 3 = 5′-rArArCrGrUrArUrArCrGrUrU-3′ (palindromic); and H26a RNA = 5′-rArUrGrArGrUrArArCrCrGrUrArArGrGrUrGrArArArUrU-3′. RNA was present in each assay at a final concentration of 2.5 μM of the folded structure (2.5 μM each strand for duplex 1 and duplex 2, 5.0 μM palindromic strand for duplex 3, 2.5 μM strand for H26a RNA). Tm values were determined by nonlinear fitting of the melting curves using GraphPad Prism 8.2.1 for duplex 1 and H26a, or by finding the maximum of the first derivative of the curve using the Varian Cary Bio-100 software for duplex 2 and duplex 3. Both methods of determining the Tm gave similar values for a given denaturation curve.

Aba-Gly-Ala-Dab-Lys-Ala-Dab-Lys-lac-Dab-Lys-Ala-Dab-Lys-NH2 [compound 9]
RNA duplex 2 Tm (observed Tm with peptide/depsipeptide 100 µM, pH 7.0, RNA alone 33.7 ± 0.7, mean ± SD of 2-4 independent experiments): 41.8 ± 0.6 °C
RNA duplex 2 ΔTm (peptide/depsipeptide 100 μM, RNA 2.5 μM each strand, pH 7.0, 10 mM phosphate, 100 mM NaCl, mean of 2–4 replicates): 8.2 °C
